Laboratory results: the Kinase Knowledgebase extract (Sharma et al. 2016)

Assays:
MAPK14 (murine) = experiment: Inhibition of MAPK14 Kinase Activity
MAPK14 (human) = MAPK14 (human) (UniProt Q16539); experiment: Inhibition of LPS Induced TNF-alpha Release in Human PBMC
Sequence of MAPK14 (human) (Q16539 whole entry, looked up): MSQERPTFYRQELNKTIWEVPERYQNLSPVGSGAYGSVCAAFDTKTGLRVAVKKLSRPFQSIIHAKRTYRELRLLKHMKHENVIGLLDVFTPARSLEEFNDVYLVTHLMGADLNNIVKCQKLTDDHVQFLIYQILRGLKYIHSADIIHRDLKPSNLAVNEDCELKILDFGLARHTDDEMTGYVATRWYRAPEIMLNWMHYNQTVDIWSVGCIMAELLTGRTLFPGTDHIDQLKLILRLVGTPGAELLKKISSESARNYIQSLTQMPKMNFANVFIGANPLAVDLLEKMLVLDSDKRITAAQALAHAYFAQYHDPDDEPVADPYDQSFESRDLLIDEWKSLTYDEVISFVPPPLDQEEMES

SMILES | IC50 (MAPK14 (murine)) [µM] | IC50 (MAPK14 (human)) [µM]
Fc1ccc(-c2nc(C3CCNCC3)oc2-c2ccnc(NC3CCCCC3)c2)cc1 | 0.015 | 0.0002
C[C@@H](Nc1nccc(-n2c(-c3ccc(F)cc3)nc3nc(N4CCN(C)CC4)ccc32)n1)c1ccccc1 | 0.006 | 0.001
CN1CCC(O)(c2nc(-c3ccc(F)cc3)c(-c3ccncc3)s2)CC1 | 0.45 | 
CN1CCC(O)(c2nc(-c3ccc(F)cc3)c(-c3ccncc3)o2)CC1 | 0.35 | 
C[C@H](Nc1cc(-c2sc(C3CCNCC3)nc2-c2ccc(F)cc2)ccn1)c1ccccc1 | 0.004 | 
Fc1ccc(-c2nc(C3CCNCC3)oc2-c2ccnc(NC3CCCCC3)n2)cc1 | 0.011 | 0.009
CN1CCC(O)(c2nc(-c3ccc(F)cc3)c(-c3ccncc3)[nH]2)CC1 | 0.09 | 
